Measured values from article PMC5388737, “Exploring the Role of CYP3A4 Mediated Drug Metabolism in the Pharmacological Modulation of Nitric Oxide Production” (Frontiers in Pharmacology, 2017).
Converted amounts (≈) assume the structure as drawn. Where two headings read alike, the source gives them in different places.

What was measured:
[1] = tested on: NO production in LPS stimulated RAW 264.7 macrophages; experiment: NO production in LPS stimulated RAW 264.7 murine macrophages (Griess assay); assay type: cell-based, mouse; details: for IC50: Mus musculus, RAW264.7
Protocol: The mouse macrophage cells, RAW264.7 (ATCC® TIB-71™) were obtained from ATCC and cultured in Dulbecco's Modified Eagle Medium (DMEM), supplemented with 10% FBS and 2 mM l-glutamine, in a humidified 5% CO2 atmosphere at 37°C. All cell handling steps were carried out using the SelecT automated cell culture system. RAW264.7 cells were seeded into 96-well plates at a density of 20 × 10^3 cells per well and grown to approximately 50% of confluence (24 h). They were cultured for another 24 h with each of the test compounds described above (5 μL of stock serial dilutions in 20% DMSO were dispensed into 190 μL of fresh medium using Perkin Elmer Evolution P3, Waltham, MA,). Afterwards, these cells were stimulated with LPS (5 μL of 6 μg/mL were dispensed using a Thermo Scientific Multidrop Combi dispenser, MTX Lab Systems, Vienna, VA). Untreated (5 μL of 20% DMSO, compound vehicle) and unstimulated (5 μL of purified water, LPS vehicle) cells were used as negative controls (n = 4) while untreated but stimulated cells were used as positive controls (n = 4) in each assay plate.
Test compound activities were calculated automatically using the Genedata Screener software (Genedata AG, Basel, Switzerland), and the percentage inhibition of each commercial compound was determined by Equation (1), integrated in the Genedata Screener software. Percentage of control of production of nitric oxide was: (1) Percentage of control = (Abswell − Absneg/Abspos − Absneg) ∗ 100 where Abswell is the absorbance measured per specific well; and Abspos and Absneg are the average absorbance measured for the positive (LPS/solvent vehicle) and negative controls (-LPS/solvent vehicle, respectively). […] Dexamethasone was used as positive control standard. All compounds were tested in triplicate (n = 3) in two different days.

[2] = In vitro metabolic stability in human liver microsomes; assay type: in vitro ADME; details: HLM 1 mg/mL, 1 μM substrate, NADPH, read-out: Met. stability T1/2
Protocol: Protein concentration was 1 mg/mL and NADPH was present at 4 mM. Reaction was quenched using an equal volume of AcN and then diluted 1:1 with water prior to analysis by liquid chromatography coupled to high resolution mass spectrometry (LC-HRMS): Chromatography. The incubations were analyzed using an Agilent Series 1290 LC system (Agilent Technologies, Santa Clara, CA, USA). […] Solvent A contained water with 0.1% formic acid and solvent B contained AcN with 0.1% formic acid, and the flow rate was set at 400 μL/min. The gradient elution was performed as follows: 0-0.5 min 0% eluent B; 0.5-7 min 100% eluent B; 7-9 min 100% eluent B; 9-9.2 min 0% eluent B; and 9.2-10.5 min 0% eluent B. High resolution mass spectrometry: AB SCIEX TripleTOF 5600 quadrupole-time-of-flight mass spectrometer (Q-TOF-MS) in positive ESI mode (AB SCIEX, Concord, ON, Canada) was used with a generic method for data acquisition on all compounds and samples. The method consisted of a time of flight mass survey scan (TOF MS), followed by two information-dependent acquisitions (IDA) TOF MS/MS scans. […] An accumulation time of 100 ms was used for each scan. Mass defect triggered IDA was used for the MS/MS scans (collision energy of 35 eV with a spread of ±10 eV). External mass calibration was performed automatically using a calibrant delivery system. Data processing was performed using MultiQuant Software and MetabolitePilot Software (AB SCIEX, Concord, ON, Canada) to process the TOF MS data and generate all quantitative information. An extracted ion current (XIC) window of ±10 mDa was used for all compounds. Peak areas were used to plot the Ln % remaining relative to t = 0.

[3] = Turbidimetric kinetic aqueous solubility (NIVA-CYPI-KS); assay type: physicochemical; details: potassium phosphate buffer, 37 °C, pH 7.4, aqueous buffer, kinetic from dmso stock, potassium phosphate buffer pH 7.4, 2 h, turbidimetry 620 nm
Protocol: (§1) Serial dilutions of test compounds in 100% DMSO were carried out on a Biomek FX workstation coupled with a stacker carrousel (Beckman Coulter Inc. Brea, California). […] Compounds for NO production assessment were also prepared from serial dilutions in 100% DMSO (20 μL) which were combined with water (80 μL).
(§2) Briefly, CYP3A4 inhibition studies were conducted using human recombinant c-DNA expressed CYP3A4 enzymes by quantification of non-fluorescent substrate, 7-benzyloxy-4-(trifluoromethyl) coumarin (BFC) transformation to a fluorescent product (7-HFC), which is mediated by CYP3A4. For aqueous solubility assessment, serial dilutions of test compounds (imidazole derivatives and macrolides) dissolved in DMSO/AcN [35:65] [v/v] (2 μL) were combined with a 180 μL potassium phosphate buffer (pH 7.4) using an Evolution P3 liquid handling station. Then the plates were incubated for 2 h at 37°C to allow slow compound precipitation. Thereafter, absorbance was measured at 620 nm by an EnVision multilabel plate reader. Absorbance signals were used to determine compound solubility limits. Pyrene was used as standard control for precipitation in turbidimetric kinetic solubility determination. […] Finally, reaction product (7-HFC) formation was quantify using florescence measurements. All compounds were tested in triplicate in two different days.

[4] = molecular target: CYP3A4 (Homo sapiens, UniProt P08684); experiment: in vitro; details: recombinant enzyme, pH 7.4
Protocol: Control samples were prepared in the absence of test compounds by the addition of solvent alone.
Briefly, the observed inactivation rate constant at each macrolide concentration was calculated from the initial slopes of the remaining enzyme activity, plotted semi-logarithmically against the pre-incubation time. Non-linear regression analysis of the negative slopes against inhibitor concentration enables Kinact and KI to be calculated. […] All compounds were tested in triplicate in two different days for every methodology studied. […].

[5] = molecular target: human recombinant c-DNA expressed CYP3A4 (Homo sapiens, UniProt P08684); experiment: CYP3A4 reversible inhibition (NIVA-CYPI-KS, BFC substrate)
Protocol: as §1, §2

[6] = RXT metabolite profile in HLM incubations (LC-HRMS); assay type: in vitro ADME, human; details: RXT incubation with HLM; peak area of [M+H]+ ion
Protocol: Test compounds (ERY, RXT, CLT, and AZT) were incubated in HLM at an initial substrate concentration of 1 μM in a 96-well format. Standard high-throughput incubation conditions were used with time points of 0, 15, 30, 45, 60, and 90 min. Protein concentration was 1 mg/mL and NADPH was present at 4 mM. Reaction was quenched using an equal volume of AcN and then diluted 1:1 with water prior to analysis by liquid chromatography coupled to high resolution mass spectrometry (LC-HRMS): Chromatography. The incubations were analyzed using an Agilent Series 1290 LC system (Agilent Technologies, Santa Clara, CA, USA). All analyses were performed using a Supelco Discovery HS C18 (2.1 × 50 mm) 3 μm column that was held at 30°C. Solvent A contained water with 0.1% formic acid and solvent B contained AcN with 0.1% formic acid, and the flow rate was set at 400 μL/min. The gradient elution was performed as follows: 0–0.5 min 0% eluent B; 0.5–7 min 100% eluent B; 7–9 min 100% eluent B; 9–9.2 min 0% eluent B; and 9.2–10.5 min 0% eluent B. High resolution mass spectrometry: AB SCIEX TripleTOF 5600 quadrupole-time-of-flight mass spectrometer (Q-TOF-MS) in positive ESI mode (AB SCIEX, Concord, ON, Canada) was used with a generic method for data acquisition on all compounds and samples. The method consisted of a time of flight mass survey scan (TOF MS), followed by two information-dependent acquisitions (IDA) TOF MS/MS scans. The mass range was m/z 100–1,000 for both MS and MS/MS. An accumulation time of 100 ms was used for each scan. Mass defect triggered IDA was used for the MS/MS scans (collision energy of 35 eV with a spread of ±10 eV). External mass calibration was performed automatically using a calibrant delivery system. Data processing was performed using MultiQuant Software and MetabolitePilot Software (AB SCIEX, Concord, ON, Canada) to process the TOF MS data and generate all quantitative information. An extracted ion current (XIC) window of ±10 mDa was used for all compounds. […]

[7] = tested on: primary cultures of alveolar rat macrophages; parameters: method as in Tamaoki et al., 1999; Kohri et al., 2000; details: ref Tamaoki et al., 1999, Kohri et al., 2000; cited from earlier work
[8] = LPS stimulated RAW 264.7, 24 h, concentrations with viability <80% rejected, read-out: NO production IC50
[9] = read-out: Solubility Range Lower bound
[10] = read-out: Solubility Range Upper bound
[11] = inferred from relative composition of the RXT metabolite mixture, read-out: inferred IC50 for inactivation of NO production

Sequence of CYP3A4 (P08684 whole entry): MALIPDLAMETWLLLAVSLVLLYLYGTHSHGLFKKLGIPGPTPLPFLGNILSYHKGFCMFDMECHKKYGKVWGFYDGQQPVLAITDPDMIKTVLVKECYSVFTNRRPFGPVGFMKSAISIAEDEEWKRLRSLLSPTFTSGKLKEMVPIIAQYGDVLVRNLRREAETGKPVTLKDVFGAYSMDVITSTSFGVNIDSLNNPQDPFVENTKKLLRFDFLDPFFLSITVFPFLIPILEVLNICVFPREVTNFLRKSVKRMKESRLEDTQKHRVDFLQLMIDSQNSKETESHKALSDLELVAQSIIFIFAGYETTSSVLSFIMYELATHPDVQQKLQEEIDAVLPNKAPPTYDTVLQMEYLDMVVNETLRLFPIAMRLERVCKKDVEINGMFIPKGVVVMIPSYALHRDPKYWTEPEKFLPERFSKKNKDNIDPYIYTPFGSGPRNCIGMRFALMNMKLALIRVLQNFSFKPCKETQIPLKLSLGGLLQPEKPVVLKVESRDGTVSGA
Sequence of human recombinant c-DNA expressed CYP3A4 (P08684 whole entry): as above

| SMILES | IC50 [1, 8] [µM] | half-life at 1 μM [2] [min] | solubility at 2 h [3, 9] [µM] | solubility at 2 h [3, 10] [µM] | Area (%) relative content of parent and metabolites [6] [%] | other results |
| --- | --- | --- | --- | --- | --- | --- |
| CC[C@H]1OC(=O)[C@H](C)[C@@H](O[C@H]2C[C@@](C)(OC)[C@@H](O)[C@H](C)O2)[C@H](C)[C@@H](O[C@@H]2O[C@H](C)C[C@H](N(C)C)[C@H]2O)[C@](C)(O)C[C@@H](C)CN(C)[C@H](C)[C@@H](O)[C@]1(C)O [Azithromycin] | > 250 | > 60 | > 86 | > 86 | – | NO production, percentage of control ([1]; 250 μM (highest noncytotoxic dose), LPS stimulated RAW 264.7): 53.82 % of control |
| CC[C@H]1OC(=O)[C@H](C)[C@@H](O[C@H]2C[C@@](C)(OC)[C@@H](O)[C@H](C)O2)[C@H](C)[C@@H](O[C@@H]2O[C@H](C)C[C@H](N(C)C)[C@H]2O)[C@](C)(OC)C[C@@H](C)C(=O)[C@H](C)[C@@H](O)[C@]1(C)O [Claritromycin, clarithromycin] | > 62.5 | 50.6 | > 86 | > 86 | – | NO production, percentage of control ([1]; 62.5 μM (highest noncytotoxic dose), LPS stimulated RAW 264.7): 85.2%; CYP3A4 TDI KI [4]: 2.68 µM |
| Clc1ccccc1C(c1ccccc1)(c1ccccc1)n1ccnc1 [Clotrimazole, clotrimazole] | – | – | 2.59 (≈ 0.893 µg/mL) | 10.3 (≈ 3.57 µg/mL) | – | – |
| C[C@@H]1C[C@H]2[C@@H]3CCC4=CC(=O)C=C[C@]4(C)[C@@]3(F)[C@@H](O)C[C@]2(C)[C@@]1(O)C(=O)CO [Dexamethasone] | 0.00721 | – | – | – | – | – |
| CC[C@H]1OC(=O)[C@H](C)[C@@H](O[C@H]2C[C@@](C)(OC)[C@@H](O)[C@H](C)O2)[C@H](C)[C@@H](O[C@@H]2O[C@H](C)C[C@H](N(C)C)[C@H]2O)[C@](C)(O)C[C@@H](C)C(=O)[C@H](C)[C@@H](O)[C@]1(C)O [Erythromycin, erythromycin] | > 250 | 21.7 | > 86 | > 86 | – | IC50 [5]: 3.21 µM |
| CC(=O)N1CCN(c2ccc(OCC3COC(Cn4ccnc4)(c4ccc(Cl)cc4Cl)O3)cc2)CC1 (stereo not drawn) [Ketoconazole, ketoconazole] | > 10 | – | – | – | – | – |
| CCC1OC(=O)C(C)C(OC2CC(C)(OC)C(O)C(C)O2)C(C)C(OC2OC(C)CC(N(C)C)C2O)C(C)(O)CC(C)C(=NO)C(C)C(O)C1(C)O (stereo not drawn) [M1, ERY oxime] | – | – | – | – | 20 | IC50 [1, 11]: 23.1 µg/mL |
| CCC1OC(=O)C(C)C(OC2CC(C)(OC)C(O)C(C)O2)C(C)C(OC2OC(C)CC(NC)C2O)C(C)(O)CC(C)C(=NO)C(C)C(O)C1(C)O (stereo not drawn) [M5, Demethylated ERY oxime] | – | – | – | – | 2 | IC50 [1, 11]: 4.74 µg/mL |
| Clc1ccc(COC(Cn2ccnc2)c2ccc(Cl)cc2Cl)c(Cl)c1 (stereo not drawn) [Miconazole, miconazole] | – | – | 8.62 (≈ 3.59 µg/mL) | 34.5 (≈ 14.3 µg/mL) | – | – |
| CC[C@H]1OC(=O)[C@H](C)[C@@H](O[C@H]2C[C@@](C)(OC)[C@@H](O)[C@H](C)O2)[C@H](C)[C@@H](O[C@@H]2O[C@H](C)C[C@H](N(C)C)[C@H]2O)[C@](C)(O)C[C@@H](C)/C(=N\OCOCCOC)[C@H](C)[C@@H](O)[C@]1(C)O [Roxythromycin, (E)-ERY-9-[O-[(2-methoxyethoxy)methyl]oxime]] | > 250 | 38.1 | > 86 | > 86 | 65 | inactivation of NO production ([1]; from 0.488 to 250 μM, LPS stimulated RAW 264.7): no inactivation at all; IC50 [5]: 6.41 µM; IC50 in NO production [7]: 5 µg/mL (≈ 5.97 µM); CYP3A4 TDI KI [4]: 0.29 µM; kinact [4]: 0.000715 s⁻¹ |
